Test results: ChEMBL document CHEMBL5126607, “Discovery and In Vivo Evaluation of ACT-660602: A Potent and Selective Antagonist of the Chemokine Receptor CXCR3 for Autoimmune Diseases” (J Med Chem, 2022)
Values after ≈ are worked out from the molar mass of the structure shown.

How the values were obtained:
[1] = biological target: T1, Voltage-gated inwardly rectifying potassium channel KCNH2 (Homo sapiens, UniProt Q12809); assay: Inhibition of hERG expressed in CHO cells by Q patch-clamp method
T1 sequence (Q12809 whole entry): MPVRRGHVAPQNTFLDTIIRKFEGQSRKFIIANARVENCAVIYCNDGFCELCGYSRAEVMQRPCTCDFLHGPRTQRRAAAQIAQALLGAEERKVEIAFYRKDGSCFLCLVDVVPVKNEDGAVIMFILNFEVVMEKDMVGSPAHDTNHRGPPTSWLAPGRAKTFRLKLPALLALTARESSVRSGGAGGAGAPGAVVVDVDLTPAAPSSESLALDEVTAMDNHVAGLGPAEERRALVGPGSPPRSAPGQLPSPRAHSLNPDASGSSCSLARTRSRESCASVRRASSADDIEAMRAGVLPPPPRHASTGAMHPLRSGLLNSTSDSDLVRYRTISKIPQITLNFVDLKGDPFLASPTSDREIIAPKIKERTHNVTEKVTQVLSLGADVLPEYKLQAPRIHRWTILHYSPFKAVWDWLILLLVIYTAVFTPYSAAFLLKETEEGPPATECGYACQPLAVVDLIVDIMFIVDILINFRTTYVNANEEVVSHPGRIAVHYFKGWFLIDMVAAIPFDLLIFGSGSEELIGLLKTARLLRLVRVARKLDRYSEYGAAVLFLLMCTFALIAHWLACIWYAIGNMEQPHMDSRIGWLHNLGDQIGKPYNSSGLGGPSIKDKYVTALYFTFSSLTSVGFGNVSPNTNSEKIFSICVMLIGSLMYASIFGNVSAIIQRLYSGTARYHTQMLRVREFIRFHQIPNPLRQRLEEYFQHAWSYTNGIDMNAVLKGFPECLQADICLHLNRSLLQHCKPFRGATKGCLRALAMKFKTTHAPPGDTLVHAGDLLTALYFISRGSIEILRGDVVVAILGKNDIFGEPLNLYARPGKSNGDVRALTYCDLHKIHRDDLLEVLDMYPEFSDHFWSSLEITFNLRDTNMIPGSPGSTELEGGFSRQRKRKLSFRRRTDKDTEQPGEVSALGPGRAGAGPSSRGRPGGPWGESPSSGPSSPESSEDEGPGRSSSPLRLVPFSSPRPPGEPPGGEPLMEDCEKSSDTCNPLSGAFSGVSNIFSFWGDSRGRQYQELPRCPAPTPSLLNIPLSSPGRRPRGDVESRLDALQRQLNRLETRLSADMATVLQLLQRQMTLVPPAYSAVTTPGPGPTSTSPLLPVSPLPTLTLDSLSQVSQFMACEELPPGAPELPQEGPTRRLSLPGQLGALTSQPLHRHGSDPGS

[2] = biological target: T2, C-X-C chemokine receptor type 3 (Homo sapiens, UniProt P49682)
T2 sequence (P49682 whole entry): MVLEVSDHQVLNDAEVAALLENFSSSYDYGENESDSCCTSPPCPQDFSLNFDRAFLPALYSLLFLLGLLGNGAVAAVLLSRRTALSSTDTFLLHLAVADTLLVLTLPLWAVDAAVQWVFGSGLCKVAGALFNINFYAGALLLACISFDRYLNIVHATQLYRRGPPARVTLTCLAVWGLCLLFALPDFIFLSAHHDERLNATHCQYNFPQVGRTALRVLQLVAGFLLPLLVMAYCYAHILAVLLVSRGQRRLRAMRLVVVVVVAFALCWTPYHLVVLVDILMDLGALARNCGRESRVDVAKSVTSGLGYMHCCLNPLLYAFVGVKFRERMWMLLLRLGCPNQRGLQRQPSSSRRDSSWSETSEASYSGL
Description: Antagonist activity at recombinant human CXCR3 expressed in human CHO-K1 cells co-expressing Galpha15 incubated for 10 mins by Fluo-4AM dye based FLIPR assay

in vivo [3] = conditions: Balb/c, mouse, po, 10 mg/kg
[4] = biological target: T2, C-X-C chemokine receptor type 3; remark: listed apart in the source
Description: Inhibition of CXCR3 receptor internalization in human venous whole blood incubated for 30 mins by flow cytometer analysis

[5] = Fractional unbound plasma concentration in mouse at 1 mg/kg, iv and 10 mg/kg, po
in vivo [6] = conditions: Balb/c, mouse, po, 10 mg/kg; remark: listed apart in the source
in vivo [7] = conditions: Balb/c, mouse, po, 10 mg/kg; remark: listed apart in the source
in vitro = conditions: human, microsomes
in vivo [8] = conditions: Balb/c, mouse, po, 10 mg/kg; remark: listed apart in the source
[9] = biological target: T2, C-X-C chemokine receptor type 3; remark: listed apart in the source
Description: Antagonist activity at recombinant human CXCR3 in human U2SO cells assessed as reduction in CXCL10-induced beta-arrestin recruitment by TANGO assay

[10] = Half life in BALB/c mouse at 1 mg/kg, iv and 10 mg/kg, po; conditions: in vivo
hERG [11] = biological target: T3, hERG (Homo sapiens, UniProt Q12809); assay: Inhibition of hERG expressed in CHO cells 10 uM at by Q patch-clamp method relative to control
T3 sequence (Q12809 whole entry): as the sequence (Q12809 whole entry) above

in vivo [12] = conditions: Wistar, rat, po, 2 mg/kg
in vivo [13] = conditions: Wistar, rat, po, 2 mg/kg; remark: listed apart in the source
in vivo [14] = conditions: Wistar, rat, po, 2 mg/kg; remark: listed apart in the source
[15] = Fractional unbound plasma concentration in rat at 0.2 mg/kg, iv and 2 mg/kg, po
[16] = Half life in Wistar rat at 0.2 mg/kg, iv and 2 mg/kg, po; conditions: in vivo
in vivo [17] = conditions: Wistar, rat, po, 2 mg/kg; remark: listed apart in the source
[18] = human, microsomes, 1 µM
[19] = Fractional unbound plasma concentration in Balb/c mouse at 10 mg/kg, po
[20] = Metabolic stability in Beagle dog hepatocyte assessed as intrinsic clearance measured per 10^6 cells in presence of NADPH regenerating system by LC-MS/MS analysis; conditions: hepatocytes
[21] = Fractional unbound plasma concentration in Beagle dog at 0.5 mg/kg, iv and 2 mg/kg, po
[22] = Metabolic stability in rat hepatocyte assessed as intrinsic clearance measured per 10^6 cells in presence of NADPH regenerating system by LC-MS/MS analysis; conditions: hepatocytes
[23] = Fractional unbound plasma concentration in Wistar rat at 0.5 mg/kg, iv and 2 mg/kg, po; conditions: in vivo
[24] = Half life in Wistar rat at 0.5 mg/kg, iv and 2 mg/kg, po; conditions: in vivo
[25] = Lipophilicity, log D of the compound at pH 7.4; conditions: buffer
in vivo [26] = conditions: beagle, dog, po, 2 mg/kg
in vivo [27] = conditions: beagle, dog, po, 2 mg/kg; remark: listed apart in the source
[28] = Half life in Beagle dog at 0.5 mg/kg, iv and 2 mg/kg, po; conditions: in vivo
in vivo [29] = conditions: beagle, dog, po, 2 mg/kg; remark: listed apart in the source
hERG [30] = biological target: T3, hERG; assay: Inhibition of hERG expressed in CHO cells 3 uM at by Q patch-clamp method relative to control; assay type: toxicity, cell-based; conditions: CHO cells that express hERG
[31] = biological target: T1, Voltage-gated inwardly rectifying potassium channel KCNH2; assay: Inhibition of hERG by manual patch clamp method
in vivo [32] = conditions: beagle, dog, po, 2 mg/kg; remark: listed apart in the source
[33] = Solubility of the compound in FaSSIF
[34] = Solubility of the compound in FeSSIF
[35] = Solubility of the compound in pH 7 buffer

SMILES: C[C@@H]1CN(c2scnc2-c2nc3ccccc3[nH]2)CCN1C(=O)Cn1cnc2cccnc21
- IC50 [1]: 2200 nM
- IC50 [2]: 5.9 nM
- AUC (in vivo [3]): 60.7 ng·h/mL
- IC50 [4]: 554 nM
- fraction unbound [5]: 0.122
- bioavailability (in vivo [6]): 4%
- Tmax (in vivo [7]): 60 min
- microsomal CLint at 1 µM (in vitro): 12 µL/min/mg
- Cmax (in vivo [8]): 95.2 ng/mL
- IC50 [9]: 830 nM
- half-life [10]: 6 min

SMILES: C[C@@H]1CN(c2sc(CN(C)C)nc2-c2nc3ccccc3[nH]2)CCN1C(=O)Cn1cnc2cccnc21
- inhibition at 10 µM (hERG [11]): 28%
- IC50 [1]: 20000 nM
- IC50 [2]: 50 nM
- IC50 [4]: 1150 nM
- microsomal CLint at 1 µM (in vitro): 44 µL/min/mg
- IC50 [9]: 2360 nM

SMILES: C[C@@H]1CN(c2sc(C(F)(F)F)nc2-c2nc3ccccc3[nH]2)CCN1C(=O)Cn1cnc2cccnc21
- IC50 [1]: 1750 nM
- bioavailability (in vivo [12]): 7%
- IC50 [2]: 1.6 nM
- AUC (in vivo [13]): 191 ng·h/mL
- Tmax (in vivo [14]): 36 min
- IC50 [4]: 70 nM
- fraction unbound [5]: 0.01
- fraction unbound [15]: 0.017
- microsomal CLint at 1 µM (in vitro): 89 µL/min/mg
- half-life [16]: 48 min
- Cmax (in vivo [17]): 91.3 ng/mL
- IC50 [9]: 31 nM

SMILES: CCOc1ncc(-c2nc(C(F)(F)F)sc2N2CCN(C(=O)Cn3cnc4cccnc43)[C@H](C)C2)cn1
- inhibition at 10 µM (hERG [11]): 44%
- IC50 [1]: 13000 nM
- IC50 [2]: 2 nM
- AUC (in vivo [3]): 1590 ng·h/mL
- IC50 [4]: 48 nM
- Tmax (in vivo [7]): 30 min
- CLH [18]: 4.5 mL/h/kg
- Cmax (in vivo [8]): 1800 ng/mL
- IC50 [9]: 20 nM
- fraction unbound [19]: 0.008

SMILES: Cc1nc(C)n(CC(=O)N2CCN(c3sc(C(F)(F)F)nc3-c3cnc(OC(C)C)nc3)C[C@H]2C)n1
- hepatocyte CLint [20]: 6.8 µL/min/1e6 cells
- IC50 [1]: > 20000 nM
- bioavailability (in vivo [12]): 89%
- IC50 [2]: 3.4 nM
- AUC (in vivo [13]): 3980 ng·h/mL
- Tmax (in vivo [14]): 30 min
- IC50 [4]: 216 nM
- fraction unbound [21]: 0.192
- microsomal CLint at 1 µM (in vitro): 16 µL/min/mg
- hepatocyte CLint [22]: 2.5 µL/min/1e6 cells
- fraction unbound [23]: 0.035
- Cmax (in vivo [17]): 806 ng/mL
- IC50 [9]: 138 nM
- half-life [24]: 108 min

SMILES: COc1ncc(-c2nc(C(F)(F)F)sc2N2CCN(C(=O)Cn3cnc4cccnc43)[C@H](C)C2)cn1
- inhibition at 10 µM (hERG [11]): 19%
- IC50 [1]: > 20000 nM
- IC50 [2]: 3.8 nM
- IC50 [4]: 158 nM
- CLH [18]: 0.84 mL/h/kg
- IC50 [9]: 177 nM

SMILES: CCOc1ncc(-c2nc(C(F)(F)F)sc2N2CCN(C(=O)Cn3nc(C)cc3C)[C@H](C)C2)cn1
- IC50 [1]: 13000 nM
- IC50 [2]: 2.3 nM
- IC50 [4]: 60 nM
- microsomal CLint at 1 µM (in vitro): 184 µL/min/mg
- logD [25]: 3.7
- IC50 [9]: 87 nM

SMILES: CCOc1ncc(-c2nc(C(F)(F)F)sc2N2CCN(C(=O)Cn3nc(C)nc3C)[C@H](C)C2)cn1
- hepatocyte CLint [20]: 5.1 µL/min/1e6 cells
- IC50 [1]: > 20000 nM
- bioavailability (in vivo [12]): 52%
- IC50 [2]: 7 nM
- AUC (in vivo [26]): 861 ng·h/mL
- AUC (in vivo [13]): 2850 ng·h/mL
- AUC (in vivo [3]): 63600 ng·h/mL
- Tmax (in vivo [14]): 30 min
- bioavailability (in vivo [27]): 52%
- half-life [28]: 60 min
- IC50 [4]: 364 nM
- Cmax (in vivo [29]): 415 ng/mL
- fraction unbound [21]: 0.328
- Tmax (in vivo [7]): 30 min
- inhibition at 3 µM (hERG [30]): 4%
- microsomal CLint at 1 µM (in vitro): < 10 µL/min/mg
- hepatocyte CLint [22]: < 2 µL/min/1e6 cells
- fraction unbound [23]: 0.101
- Cmax (in vivo [17]): 574 ng/mL
- logD [25]: 2.8
- Cmax (in vivo [8]): 11600 ng/mL
- IC50 [9]: 173 nM
- fraction unbound [19]: 0.023
- IC50 [31]: 44000 nM
- Tmax (in vivo [32]): 30 min
- half-life [24]: 372 min

SMILES: CCOc1ncc(-c2nc(C(F)(F)F)sc2N2CCN(C(=O)Cn3cnc(C(F)(F)F)n3)[C@H](C)C2)cn1
- IC50 [1]: > 6000 nM
- inhibition at 3 µM (hERG [30]): 31%

SMILES: Cc1nc(C)n(CC(=O)N2CCN(c3sc(C(F)(F)F)nc3-c3cnc(C(F)(F)F)nc3)C[C@H]2C)n1
- solubility [33]: 450 µg/mL (≈ 842 µM)
- hepatocyte CLint [20]: < 2 µL/min/1e6 cells
- bioavailability (in vivo [12]): 80%
- AUC (in vivo [26]): 20000 ng·h/mL
- AUC (in vivo [13]): 14000 ng·h/mL
- solubility [34]: 530 µg/mL (≈ 992 µM)
- Tmax (in vivo [14]): 30 min
- bioavailability (in vivo [27]): 80%
- half-life [28]: 870 min
- Cmax (in vivo [29]): 1380 ng/mL
- microsomal CLint at 1 µM (in vitro): < 10 µL/min/mg
- hepatocyte CLint [22]: < 2 µL/min/1e6 cells
- solubility [35]: 387 µg/mL (≈ 724 µM)
- Cmax (in vivo [17]): 1520 ng/mL
- logD [25]: 2.9
- Tmax (in vivo [32]): 60 min
- half-life [24]: 426 min

SMILES: Cc1nc(C)n(CC(=O)N2CCN(c3sc(C(F)(F)F)nc3-c3cnc(OC4CCC4)nc3)C[C@H]2C)n1
- IC50 [1]: > 20000 nM
- IC50 [2]: 4 nM
- IC50 [4]: 306 nM
- microsomal CLint at 1 µM (in vitro): 51 µL/min/mg
- logD [25]: 3.6
- IC50 [9]: 78 nM

SMILES: C[C@@H]1CN(c2sc(C(F)(F)F)nc2-c2cnc(OCCN(C)C)nc2)CCN1C(=O)Cn1cnc2cccnc21
- inhibition at 10 µM (hERG [11]): 25%
- IC50 [1]: > 20000 nM
- IC50 [2]: 6.7 nM
- IC50 [4]: 381 nM
- CLH [18]: 1.74 mL/h/kg
- IC50 [9]: 140 nM
